Values joined by “and” are separate entries in the source; they are usually repeats but may differ in a detail not shown here. Identical values can stand only once. Toxic doses and inconclusive results are not listed. Rule for the calls: active = survival T/C of 150% or more; inactive = T/C below 125% in these data. Non-standard residues stand in square brackets, D forms with d. Residues, ends and D or L forms follow the SMILES beside them. ξ: configuration not given here. ξK = NCCCCC(N)C(=O)O
Test system: BDF1 mice, P388 leukemia ip, median survival T/C
Assay: NCI In Vivo Anticancer Drug Screen. Data for tumor model P388 Leukemia (intraperitoneal) in B6D2F1 (BDF1) mice
Conditions: endpoint: median survival time, higher = longer survival
Method in brief: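 Compound-treated tumour-bearing mice were compared with vehicle-treated controls. Survival was recorded, and the value is the treated-group measurement divided by the control-group measurement (T/C).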

[1] = dose: 12.5 mg/kg/injection, schedule: Q04DX003 (ip), vehicle: saline
[2] = dose: 25.0 mg/kg/injection, schedule: Q04DX003 (ip), vehicle: saline
[3] = dose: 50.0 mg/kg/injection, schedule: Q04DX003 (ip), vehicle: saline
[4] = dose: 100.0 mg/kg/injection, schedule: Q04DX003 (ip), vehicle: saline
[5] = dose: 200.0 mg/kg/injection, schedule: Q04DX003 (ip), vehicle: saline
[6] = dose: 400.0 mg/kg/injection, schedule: Q04DX003 (ip), vehicle: saline
[7] = dose: 25.0 mg/kg/injection, schedule: Q01DX009 (ip), vehicle: saline with Tween-80
[8] = dose: 50.0 mg/kg/injection, schedule: Q01DX009 (ip), vehicle: saline with Tween-80
[9] = dose: 50.0 mg/kg/injection, schedule: Q04DX003 (ip), vehicle: saline with Tween-80
[10] = dose: 100.0 mg/kg/injection, schedule: Q04DX003 (ip), vehicle: saline with Tween-80
[11] = dose: 200.0 mg/kg/injection, schedule: Q04DX003 (ip), vehicle: saline with Tween-80
[12] = dose: 400.0 mg/kg/injection, schedule: Q04DX003 (ip), vehicle: saline with Tween-80
[13] = dose: 12.5 mg/kg/injection, schedule: Q04DX003 (ip), vehicle: saline with Tween-80
[14] = dose: 25.0 mg/kg/injection, schedule: Q04DX003 (ip), vehicle: saline with Tween-80

Measured: T/C

O=N[O-].[Co].[NH2-].[NH2-].[NH2-].[NH2-].[NH2-]
inactive: [1] 95 % of control | [2] 100 % of control | [3] 100 % of control

CC(=O)Oc1cc(OCCCc2ccc(F)cc2)cc2ccc3ccccc3c12
inactive: dose: 25.0 mg/kg/injection, schedule: Q04DX002 (ip), vehicle: saline with Tween-80 99 % of control | dose: 50.0 mg/kg/injection, schedule: Q04DX002 (ip), vehicle: saline with Tween-80 98 % of control | dose: 100.0 mg/kg/injection, schedule: Q04DX002 (ip), vehicle: saline with Tween-80 90 % of control

CCOC(=O)C(C)[P+](c1ccccc1)(c1ccccc1)c1ccccc1 (stereo not drawn)
inactive: dose: 1.0 mg/kg/injection, schedule: Q01DX009 (ip), vehicle: saline 115 % of control | dose: 1.5 mg/kg/injection, schedule: Q01DX009 (ip), vehicle: saline 103 % of control | dose: 1.5 mg/kg/injection, schedule: Q04DX003 (ip), vehicle: saline 90 % of control | dose: 2.25 mg/kg/injection, schedule: Q01DX009 (ip), vehicle: saline 100 % of control | dose: 3.0 mg/kg/injection, schedule: Q01DX009 (ip), vehicle: saline 118 % of control | dose: 3.0 mg/kg/injection, schedule: Q04DX003 (ip), vehicle: saline 104 % of control | dose: 6.0 mg/kg/injection, schedule: Q04DX003 (ip), vehicle: saline 90 % of control

COC(=O)C[C@](O)(CCC(C)(C)O)C(=O)O[C@@H]1C(OC)=C[C@]23CCCN2CCc2cc4c(cc2[C@H]13)OCO4
inactive: dose: 0.5 mg/kg/injection, schedule: Q01DX006 (iv), vehicle: saline 110 % of control | dose: 1.0 mg/kg/injection, schedule: Q01DX010 (oral), vehicle: saline 115 % of control | dose: 1.0 mg/kg/injection, schedule: Q03HX016 (ip), vehicle: saline 109 % of control | dose: 1.0 mg/kg/injection, schedule: Q03HX024 (ip), vehicle: saline 100 % of control | dose: 4.0 mg/kg/injection, schedule: Q01DX010 (sc), vehicle: saline 100 % of control | dose: 8.0 mg/kg/injection, schedule: Q01DX001 (ip), vehicle: saline 118 % of control | dose: 8.0 mg/kg/injection, schedule: Q01DX010 (oral), vehicle: saline 90 % of control | dose: 8.0 mg/kg/injection, schedule: Q04DX003 (ip), vehicle: saline 104 % of control | dose: 8.0 mg/kg/injection, schedule: Q08DX002 (ip), vehicle: saline 100 % of control
active: dose: 0.22 mg/kg/injection, schedule: Q01DX009 (ip), vehicle: saline 190 % of control | dose: 0.25 mg/kg/injection, schedule: Q01DX009 (ip), vehicle: saline 172 % of control and 209 % of control and 215 % of control | dose: 0.25 mg/kg/injection, schedule: Q03HX016 (ip), vehicle: saline 163 % of control | dose: 0.25 mg/kg/injection, schedule: Q03HX024 (ip), vehicle: saline 177 % of control | dose: 0.33 mg/kg/injection, schedule: Q01DX009 (ip), vehicle: saline 204 % of control | dose: 0.5 mg/kg/injection, schedule: Q01DX009 (ip), vehicle: water 261 % of control and 294 % of control | dose: 0.5 mg/kg/injection, schedule: Q03HX008 (ip), vehicle: saline 172 % of control | dose: 0.5 mg/kg/injection, schedule: Q03HX016 (ip), vehicle: saline 163 % of control | dose: 0.5 mg/kg/injection, schedule: Q03HX024 (ip), vehicle: saline 236 % of control | dose: 1.0 mg/kg/injection, schedule: Q01DX009 (ip), vehicle: water 350 % of control and 405 % of control | dose: 1.0 mg/kg/injection, schedule: Q01DX009 (sc), vehicle: saline 165 % of control | dose: 2.0 mg/kg/injection, schedule: Q01DX006 (iv), vehicle: saline 205 % of control | dose: 2.0 mg/kg/injection, schedule: Q01DX009 (ip), vehicle: water 205 % of control | dose: 2.0 mg/kg/injection, schedule: Q01DX009 (oral), vehicle: saline 210 % of control | dose: 2.0 mg/kg/injection, schedule: Q01DX009 (sc), vehicle: saline 215 % of control | dose: 2.0 mg/kg/injection, schedule: Q01DX010 (oral), vehicle: saline 160 % of control | dose: 2.0 mg/kg/injection, schedule: Q01DX010 (sc), vehicle: saline 235 % of control | dose: 2.0 mg/kg/injection, schedule: Q04DX003 (ip), vehicle: saline 154 % of control | dose: 4.0 mg/kg/injection, schedule: Q01DX009 (ip), vehicle: saline 150 % of control

CCCCCCCC/C=C\CCCCCCCC(=O)OCCCCCCCCCCCCCCC
inactive: [4] 100 % of control | [5] 100 % of control | [6] 100 % of control

O=C1OC(=O)C2C1C1(Cl)C(Cl)=C(Cl)C2(Cl)C2C(=O)OC(=O)C21 (stereo not drawn)
inactive: [4] 91 % of control | [5] 108 % of control | [6] 104 % of control

CN1CCCC1CCNc1nc(C(Cl)(Cl)Cl)nc2ccc(Cl)cc12 (stereo not drawn)
inactive: [7] 100 % of control | [8] 100 % of control | [9] 104 % of control | [10] 104 % of control

CCC(C)(C)C(=O)O
inactive: dose: 50.0 mg/kg/injection, schedule: Q01DX009 (ip), vehicle: saline 100 % of control | [3] 100 % of control | dose: 100.0 mg/kg/injection, schedule: Q01DX009 (ip), vehicle: saline 105 % of control | [10] 105 % of control | [4] 104 % of control | dose: 200.0 mg/kg/injection, schedule: Q01DX009 (ip), vehicle: saline 110 % of control | [11] 110 % of control | [5] 100 % of control | [12] 100 % of control

CCC(C)NCCNCCNC(C)CC (stereo not drawn)
inactive: dose: 6.25 mg/kg/injection, schedule: Q04DX003 (ip), vehicle: saline 95 % of control | [1] 95 % of control | [2] 104 % of control

NCCCCC(N)C(=O)NCC(=O)O (stereo not drawn) (H-[ξK]-Gly-OH)
inactive: dose: 50.0 mg/kg/injection, schedule: Q01DX005 (ip), vehicle: saline 95 % of control | dose: 100.0 mg/kg/injection, schedule: Q01DX005 (ip), vehicle: saline 102 % of control | dose: 200.0 mg/kg/injection, schedule: Q01DX005 (ip), vehicle: saline 88 % of control

Cc1cc(CC(Cl)(C(F)(F)F)C(F)(F)F)cc(CC(Cl)(C(F)(F)F)C(F)(F)F)n1
inactive: dose: 6.25 mg/kg/injection, schedule: Q01DX009 (ip), vehicle: saline with Tween-80 110 % of control | dose: 12.5 mg/kg/injection, schedule: Q01DX009 (ip), vehicle: saline with Tween-80 105 % of control | [13] 90 % of control | [7] 110 % of control | [14] 90 % of control | [9] 113 % of control

O=c1oc(-c2ccccc2)nc2cc(Cl)ccc12
inactive: [9] 100 % of control and 109 % of control | [10] 100 % of control and 109 % of control | [11] 104 % of control

CC1CCCC(CN=Cc2cc([N+](=O)[O-])ccc2O)[N-]1.CC1CCCC(CN=Cc2cc([N+](=O)[O-])ccc2O)[N-]1.[Ni+2] (stereo not drawn)
inactive: [13] 100 % of control | [14] 100 % of control | [9] 100 % of control

O=C1c2c(O)ccc(O)c2C(=O)c2c(NCCNCCO)ccc(NCCNCCO)c21
active: dose: 0.78 mg/kg/injection, schedule: Q01DX009 (ip), vehicle: water 270 % of control | dose: 1.56 mg/kg/injection, schedule: Q01DX009 (ip), vehicle: water 181 % of control
inactive: dose: 3.13 mg/kg/injection, schedule: Q01DX009 (ip), vehicle: water 90 % of control

Cc1cc2nc3c(nc2cc1C)-c1ccccc1C3=O
inactive: [10] 110 % of control | [11] 100 % of control | [12] 100 % of control

CC(C)c1ccccc1OS(=O)(=O)c1ccc([N+](=O)[O-])cc1
inactive: dose: 100.0 mg/kg/injection, schedule: Q04DX003 (ip), vehicle: saline sonified 90 % of control | dose: 200.0 mg/kg/injection, schedule: Q04DX003 (ip), vehicle: saline sonified 95 % of control | dose: 400.0 mg/kg/injection, schedule: Q04DX003 (ip), vehicle: saline sonified 95 % of control

O=[N+]([O-])c1ccc(N/N=C2/C3CCC(C3)C2C(O)(C(F)(F)F)C(F)(F)F)c([N+](=O)[O-])c1 (stereo not drawn)
inactive: [10] 90 % of control | [11] 90 % of control | [12] 95 % of control

CC(C)CCCC(C)C1CCC2C3CC=C4CC(S[As](C)C)CCC4(C)C3CCC12C (stereo not drawn)
inactive: [8] 98 % of control | dose: 100.0 mg/kg/injection, schedule: Q01DX009 (ip), vehicle: saline with Tween-80 95 % of control | dose: 200.0 mg/kg/injection, schedule: Q01DX009 (ip), vehicle: saline with Tween-80 98 % of control
